From ChEMBL document CHEMBL1201862, “PubChem BioAssay data set” (2004)
Calls of active or inactive are those of the source.

How the values were obtained:
[1] = target: T1, Runt-related transcription factor 1/Core-binding factor subunit beta (Homo sapiens, UniProt Q01196+Q13951); experiment: inhibitors of RUNX1 Runt–CBFb-SMMHC binding, primary screen, biochemical, FRET, Cerulean-Runt, Venus-CBFb-SMMHC, uHTS (AID 1434); format: protein assay;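 further: partner is the CBFb-SMMHC leukemia fusion protein rather than wild-type CBFb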
[2] = target: T1, Runt-related transcription factor 1/Core-binding factor subunit beta; experiment: inhibitors of RUNX1 Runt–CBFb-SMMHC binding, biochemical, TR-FRET (AID 1438); format: protein assay
Bcl-2-like protein 1 = Bcl-2-like protein 1 (Homo sapiens, UniProt Q07817); experiment: BCL-XL inhibitors, dose response, selectivity assay for MCL1 inhibitor project, biochemical, fluorescence polarization, 1536-well (AID 2218)
Caspase-6 = Caspase-6 (Homo sapiens, UniProt P55212); experiment: human caspase-6 inhibitors, dose response, biochemical, VEID-R110 fluorescence, cherry-pick (AID 720632)
[3] = target: DNA dC->dU-editing enzyme APOBEC-3A (Homo sapiens, UniProt P31941); experiment: Dose Response confirmation of small molecule APOBEC3A DNA Deaminase Inhibitors via a fluorescence-based single-stranded DNA deaminase assay. [Related pubchem assays (depositor defined):AID493011, AID493024]; format: functional
Caspase-7 = Caspase-7 (Homo sapiens, UniProt P55210); experiment: human caspase-7 inhibitors, dose response, selectivity assay for caspase-6 inhibitor project, biochemical, DEVD-R110 fluorescence, cherry-pick (AID 743295)
[4] = target: Induced myeloid leukemia cell differentiation protein Mcl-1 (Homo sapiens, UniProt Q07820); experiment: MCL1-BIM BH3 interaction inhibitors, dose response, biochemical, fluorescence polarization, BIM-BH3 peptide, 1536-well (AID 2217)
[5] = target: DNA dC->dU-editing enzyme APOBEC-3G (Homo sapiens, UniProt Q9HC16); format: functional;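 further: Dose-response counterscreen measuring inhibition of APOBEC3G DNA deaminase activity, run while confirming APOBEC3A inhibitors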
Coagulation factor XII [6] = target: T2, Coagulation factor XII (Homo sapiens, UniProt P00748); experiment: Factor XIIa Dose Response Confirmation from Single Well HTS. [Related pubchem assays (depositor defined):AID701]; format: functional
T2 sequence (P00748 whole entry): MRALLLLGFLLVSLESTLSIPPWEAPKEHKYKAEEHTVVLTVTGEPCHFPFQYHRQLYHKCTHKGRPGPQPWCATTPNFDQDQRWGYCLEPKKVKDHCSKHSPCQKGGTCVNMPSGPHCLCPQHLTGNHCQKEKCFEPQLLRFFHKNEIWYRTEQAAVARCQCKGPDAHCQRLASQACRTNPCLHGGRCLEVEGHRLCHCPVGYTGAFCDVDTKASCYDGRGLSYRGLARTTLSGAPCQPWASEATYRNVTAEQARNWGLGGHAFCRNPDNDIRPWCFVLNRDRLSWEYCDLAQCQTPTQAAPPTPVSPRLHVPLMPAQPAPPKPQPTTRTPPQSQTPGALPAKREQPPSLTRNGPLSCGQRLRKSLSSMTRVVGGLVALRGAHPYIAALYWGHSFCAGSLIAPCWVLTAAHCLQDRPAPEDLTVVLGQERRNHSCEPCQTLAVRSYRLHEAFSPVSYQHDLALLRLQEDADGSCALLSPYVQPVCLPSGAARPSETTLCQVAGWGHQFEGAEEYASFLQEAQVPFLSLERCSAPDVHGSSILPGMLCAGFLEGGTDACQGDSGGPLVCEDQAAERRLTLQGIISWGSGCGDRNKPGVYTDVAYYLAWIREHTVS

[7] = inhibitors of firefly luciferase expression or activity, dose response, H4 neuroglioma cells, luminescence (AID 1990); format: functional, cell-based
[8] = insulin promoter down-regulators in MIN6 cells, imaging, high-content screening, mouse beta cells (AID 1628); format: functional
[9] = inhibitors of SNCA 5'UTR-driven reporter translation, confirmation, H4 neuroglioma cells, luminescence (AID 1988); format: functional, cell-based
[10] = target: T3, Heat shock factor protein 1 (Mus musculus, UniProt P38532); experiment: inhibition of MG132-induced HSE-luciferase signal, confirmation, cell-based, NIH3T3, luminescence, dose retest (AID 2382); format: functional;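 further: NIH3T3 fibroblasts with HSF1-driven luciferase reporter stressed by proteasome inhibitor MG132; luminescence from HSF1-driven luciferase expression after 8 hours of MG132 stress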
T3 sequence (P38532 whole entry): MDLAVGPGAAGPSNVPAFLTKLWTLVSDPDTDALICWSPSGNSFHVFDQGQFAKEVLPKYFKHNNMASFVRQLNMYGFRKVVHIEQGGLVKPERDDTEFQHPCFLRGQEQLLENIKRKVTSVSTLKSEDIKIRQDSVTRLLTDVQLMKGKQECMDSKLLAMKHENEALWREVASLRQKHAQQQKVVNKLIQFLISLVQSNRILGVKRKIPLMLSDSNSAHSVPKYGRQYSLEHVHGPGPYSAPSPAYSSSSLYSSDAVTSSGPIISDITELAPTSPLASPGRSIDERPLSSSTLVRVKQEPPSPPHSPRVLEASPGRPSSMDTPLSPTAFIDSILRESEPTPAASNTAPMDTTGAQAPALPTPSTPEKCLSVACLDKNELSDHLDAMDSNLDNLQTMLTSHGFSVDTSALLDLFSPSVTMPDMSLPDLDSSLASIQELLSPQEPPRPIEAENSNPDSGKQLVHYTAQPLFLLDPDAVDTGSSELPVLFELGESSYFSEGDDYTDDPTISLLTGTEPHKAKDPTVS

[11] = cytotoxicity in MIN6 insulinoma cells, dose response, cytotoxicity control, cell-based, mouse insulinoma (AID 2122); format: functional;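 further: confirmatory high-throughput counterscreen run to flag cytotoxic compounds; mouse MIN-6 beta cells carrying an insulin promoter eGFP reporter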
X-box-binding protein 1 = X-box-binding protein 1 (Homo sapiens, UniProt P17861); format: functional, Cricetulus griseus;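 further: confirmatory dose-response counter-screen serving a CHOP assay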
BJ [12] = experiment: cytotoxicity toward BJ-TERT fibroblasts, dose response, cell-based, RAS-independent, luminescence (AID 1933); format: functional; details: Homo sapiens
INS1 = experiment: beta cell apoptosis inhibitors, cytokine rescue, dose response, luminescence, retest (AID 449756); format: functional, cell-based; details: Rattus norvegicus;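 further: cell death triggered by IL-1 beta plus TNF-alpha plus IFN-gamma mixture; protective hits raise ATP signal compared with cytokine alone wells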
[13] = target: T4, Type-1 angiotensin II receptor (Homo sapiens, UniProt P30556); experiment: AT1 receptor agonists, dose response, selectivity assay for APJ receptor agonist project, cell-based, uHTS hits (AID 488865); format: functional;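 further: beta-arrestin recruitment to AT1 measured by enzyme fragment complementation luminescence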
T4 sequence (P30556 whole entry): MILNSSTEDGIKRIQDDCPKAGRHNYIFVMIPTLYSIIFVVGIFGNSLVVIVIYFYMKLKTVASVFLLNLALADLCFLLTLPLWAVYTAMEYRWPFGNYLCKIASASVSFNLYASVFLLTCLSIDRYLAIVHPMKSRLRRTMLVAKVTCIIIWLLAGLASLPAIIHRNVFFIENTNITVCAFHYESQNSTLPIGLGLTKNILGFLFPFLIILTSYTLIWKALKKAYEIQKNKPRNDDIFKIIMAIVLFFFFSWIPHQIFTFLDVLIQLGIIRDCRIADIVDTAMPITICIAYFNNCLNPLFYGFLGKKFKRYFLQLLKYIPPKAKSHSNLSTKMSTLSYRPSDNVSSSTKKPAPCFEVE

BJ [14] = experiment: cytotoxicity toward Ras-transformed BJeLR fibroblasts, dose response, cell-based, alamar blue fluorescence, cherrypicked samples (AID 2631); format: functional; details: Homo sapiens;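 further: confirmatory dose-response assay in RAS-dependent BJ fibroblasts engineered with TERT, LT and ST, with cytotoxicity read by fluorescence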
BJ [15] = experiment: cytotoxicity toward BJ-TERT-LT-ST fibroblasts, dose response, cell-based, RAS-independent, luminescence (AID 1935); format: functional; details: Homo sapiens;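 further: BJ fibroblasts immortalized with TERT plus LT and ST oncogenes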
[16] = cytotoxicity toward DRD oncogenic fibroblasts, dose response, cell-based, non-viral oncogenic, luminescence (AID 1934); format: functional; details: Homo sapiens
BJ [17] = experiment: cells; format: functional, cell-based; details: Homo sapiens
[18] = Luminescence Cell-Based Dose Response HTS to Identify Inhibitors of 5'UTR Stem-Loop Driven Prion Protein mRNA Translation in H4 Neuroglioblastoma Cells. [Related pubchem assays: 1827 (Project Summary), 1813 (Primary HTS)]; format: functional
Coagulation factor XII [19] = target: T2, Coagulation factor XII; experiment: FXIIa inhibitor potency, concentration-response, biochemical (AID 716); format: functional
T-cell = experiment: inhibitors of CD8+ T cell–vesicle binding, dose response, mouse 2C CD8+ T cells, flow cytometry (AID 485284); format: functional
Cannabinoid receptor 2 [20] = target: T5, Cannabinoid receptor 2 (Homo sapiens, UniProt P34972); experiment: SAR analysis of agonists of the Cannabinoid Receptor 2 using an Image-Based Assay - Set 2. [Related pubchem assays (depositor defined):AID1961, AID1965]; format: functional
[21] = target: T6, G-protein coupled receptor 35 (Homo sapiens, UniProt Q9HC97); experiment: SAR analysis of Agonists of the GPR35 Receptor using an Image-Based Assay - Set 3. [Related pubchem assays (depositor defined):AID1961, AID1965]; format: functional
Cannabinoid receptor 2 [22] = target: T5, Cannabinoid receptor 2; experiment: SAR analysis of antagonists of the Cannabinoid Receptor 2 using an Image-Based Assay - Set 2. [Related pubchem assays (depositor defined):AID1961, AID1965]; format: functional
Cannabinoid receptor 1 [23] = target: T7, Cannabinoid receptor 1 (Homo sapiens, UniProt P21554); experiment: SAR analysis of antagonists of the Cannabinoid Receptor 1 using an Image-Based Assay - Set 3. [Related pubchem assays (depositor defined):AID1961, AID1965]; format: functional
Cannabinoid receptor 1 [24] = target: T7, Cannabinoid receptor 1; experiment: SAR analysis of agonists of the Cannabinoid Receptor 1 using an Image-Based Assay - Set 3. [Related pubchem assays (depositor defined):AID1961, AID1965]; format: functional
[25] = target: T6, G-protein coupled receptor 35; experiment: SAR analysis of Antagonists of the GPR35 Receptor using an Image-Based Assay - Set 4. [Related pubchem assays (depositor defined):[…]]; format: functional
[26] = target: G-protein coupled receptor 55 (Homo sapiens, UniProt Q9Y2T6); experiment: SAR analysis of selective Agonists of GPR55 using an Image-Based Assay - Set 2. [Related pubchem assays (depositor defined):AID1961, AID1965]; format: functional
[27] = target: T8, Voltage-dependent T-type calcium channel subunit alpha-1H (Homo sapiens, UniProt O95180); experiment: Inhibitors of T-Type Calcium Channels (Cav3.2 HEK whole cell CRC). [Related pubchem assays (depositor defined):AID449739, AID463087, AID489005, AID493021, AID493022, AID493023, AID493041, AID504579, AID504584]; format: functional, cell-based, HEK293
[28] = target: T8, Voltage-dependent T-type calcium channel subunit alpha-1H; experiment: Cav3.2 T-type channel inhibitors, synthesized analogs, SAR follow-up, cell-based, synthetic library set 2, HEK293 HH8, Fluo-4 (AID 493023); format: functional
[29] = target: E3 ubiquitin-protein ligase Mdm2/Protein Mdm4 (Homo sapiens, UniProt O15151+Q00987); experiment: Mdm2-MdmX interaction inhibitors, dose response, luminescence detection (AID 504593); format: functional
[30] = NIH-3T3 fibroblast cytotoxicity, dose response, cytotoxicity control, cell-based, fluorescence, Alamar Blue, secondary assay (AID 2327); format: functional;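 further: NIH-3T3 mouse fibroblasts cultured with fluconazole at 8 µg/mL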
[31] = Luminescence Cell-Based Dose Retest to Confirm Inhibitors of Cancer Stem Cells. [Related pubchem assays (depositor defined):AID2717, AID2721]; format: functional; details: Homo sapiens
cells [32] = format: functional, cell-based
cells [33] = format: functional, cell-based; remark: listed apart in the source
[34] = C. albicans growth with fluconazole, confirmation, fluorescence, retest (AID 2467); format: functional, cell-based

T5 sequence (P34972 whole entry): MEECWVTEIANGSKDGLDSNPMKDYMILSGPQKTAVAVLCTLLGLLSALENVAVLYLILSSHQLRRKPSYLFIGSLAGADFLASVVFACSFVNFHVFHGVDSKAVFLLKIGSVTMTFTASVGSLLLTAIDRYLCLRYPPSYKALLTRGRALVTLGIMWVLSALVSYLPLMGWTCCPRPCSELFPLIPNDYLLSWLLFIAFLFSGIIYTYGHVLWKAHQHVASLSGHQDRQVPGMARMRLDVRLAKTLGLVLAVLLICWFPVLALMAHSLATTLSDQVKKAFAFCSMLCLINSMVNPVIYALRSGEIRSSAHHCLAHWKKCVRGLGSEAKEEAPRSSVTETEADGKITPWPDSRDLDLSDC
T1 sequence (Q01196 whole entry, the tested form may be a part): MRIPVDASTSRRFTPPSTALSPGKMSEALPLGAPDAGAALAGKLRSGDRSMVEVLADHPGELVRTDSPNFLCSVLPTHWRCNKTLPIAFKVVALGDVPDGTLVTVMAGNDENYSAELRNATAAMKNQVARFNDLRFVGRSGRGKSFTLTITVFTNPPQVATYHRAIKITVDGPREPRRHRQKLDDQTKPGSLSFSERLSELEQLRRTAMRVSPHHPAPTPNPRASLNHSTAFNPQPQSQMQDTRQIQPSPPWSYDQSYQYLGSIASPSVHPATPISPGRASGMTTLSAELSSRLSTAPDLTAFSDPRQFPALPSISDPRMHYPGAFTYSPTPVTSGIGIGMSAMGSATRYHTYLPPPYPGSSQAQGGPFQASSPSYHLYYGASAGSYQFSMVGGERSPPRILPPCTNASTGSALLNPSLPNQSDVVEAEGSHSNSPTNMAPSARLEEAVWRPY
T1 sequence (Q13951 whole entry, the tested form may be a part): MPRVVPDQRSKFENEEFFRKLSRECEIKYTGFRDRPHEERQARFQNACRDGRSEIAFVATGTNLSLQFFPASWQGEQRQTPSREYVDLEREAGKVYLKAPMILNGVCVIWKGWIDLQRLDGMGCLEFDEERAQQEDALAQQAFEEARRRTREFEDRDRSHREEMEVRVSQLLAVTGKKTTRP
T8 sequence (O95180 whole entry): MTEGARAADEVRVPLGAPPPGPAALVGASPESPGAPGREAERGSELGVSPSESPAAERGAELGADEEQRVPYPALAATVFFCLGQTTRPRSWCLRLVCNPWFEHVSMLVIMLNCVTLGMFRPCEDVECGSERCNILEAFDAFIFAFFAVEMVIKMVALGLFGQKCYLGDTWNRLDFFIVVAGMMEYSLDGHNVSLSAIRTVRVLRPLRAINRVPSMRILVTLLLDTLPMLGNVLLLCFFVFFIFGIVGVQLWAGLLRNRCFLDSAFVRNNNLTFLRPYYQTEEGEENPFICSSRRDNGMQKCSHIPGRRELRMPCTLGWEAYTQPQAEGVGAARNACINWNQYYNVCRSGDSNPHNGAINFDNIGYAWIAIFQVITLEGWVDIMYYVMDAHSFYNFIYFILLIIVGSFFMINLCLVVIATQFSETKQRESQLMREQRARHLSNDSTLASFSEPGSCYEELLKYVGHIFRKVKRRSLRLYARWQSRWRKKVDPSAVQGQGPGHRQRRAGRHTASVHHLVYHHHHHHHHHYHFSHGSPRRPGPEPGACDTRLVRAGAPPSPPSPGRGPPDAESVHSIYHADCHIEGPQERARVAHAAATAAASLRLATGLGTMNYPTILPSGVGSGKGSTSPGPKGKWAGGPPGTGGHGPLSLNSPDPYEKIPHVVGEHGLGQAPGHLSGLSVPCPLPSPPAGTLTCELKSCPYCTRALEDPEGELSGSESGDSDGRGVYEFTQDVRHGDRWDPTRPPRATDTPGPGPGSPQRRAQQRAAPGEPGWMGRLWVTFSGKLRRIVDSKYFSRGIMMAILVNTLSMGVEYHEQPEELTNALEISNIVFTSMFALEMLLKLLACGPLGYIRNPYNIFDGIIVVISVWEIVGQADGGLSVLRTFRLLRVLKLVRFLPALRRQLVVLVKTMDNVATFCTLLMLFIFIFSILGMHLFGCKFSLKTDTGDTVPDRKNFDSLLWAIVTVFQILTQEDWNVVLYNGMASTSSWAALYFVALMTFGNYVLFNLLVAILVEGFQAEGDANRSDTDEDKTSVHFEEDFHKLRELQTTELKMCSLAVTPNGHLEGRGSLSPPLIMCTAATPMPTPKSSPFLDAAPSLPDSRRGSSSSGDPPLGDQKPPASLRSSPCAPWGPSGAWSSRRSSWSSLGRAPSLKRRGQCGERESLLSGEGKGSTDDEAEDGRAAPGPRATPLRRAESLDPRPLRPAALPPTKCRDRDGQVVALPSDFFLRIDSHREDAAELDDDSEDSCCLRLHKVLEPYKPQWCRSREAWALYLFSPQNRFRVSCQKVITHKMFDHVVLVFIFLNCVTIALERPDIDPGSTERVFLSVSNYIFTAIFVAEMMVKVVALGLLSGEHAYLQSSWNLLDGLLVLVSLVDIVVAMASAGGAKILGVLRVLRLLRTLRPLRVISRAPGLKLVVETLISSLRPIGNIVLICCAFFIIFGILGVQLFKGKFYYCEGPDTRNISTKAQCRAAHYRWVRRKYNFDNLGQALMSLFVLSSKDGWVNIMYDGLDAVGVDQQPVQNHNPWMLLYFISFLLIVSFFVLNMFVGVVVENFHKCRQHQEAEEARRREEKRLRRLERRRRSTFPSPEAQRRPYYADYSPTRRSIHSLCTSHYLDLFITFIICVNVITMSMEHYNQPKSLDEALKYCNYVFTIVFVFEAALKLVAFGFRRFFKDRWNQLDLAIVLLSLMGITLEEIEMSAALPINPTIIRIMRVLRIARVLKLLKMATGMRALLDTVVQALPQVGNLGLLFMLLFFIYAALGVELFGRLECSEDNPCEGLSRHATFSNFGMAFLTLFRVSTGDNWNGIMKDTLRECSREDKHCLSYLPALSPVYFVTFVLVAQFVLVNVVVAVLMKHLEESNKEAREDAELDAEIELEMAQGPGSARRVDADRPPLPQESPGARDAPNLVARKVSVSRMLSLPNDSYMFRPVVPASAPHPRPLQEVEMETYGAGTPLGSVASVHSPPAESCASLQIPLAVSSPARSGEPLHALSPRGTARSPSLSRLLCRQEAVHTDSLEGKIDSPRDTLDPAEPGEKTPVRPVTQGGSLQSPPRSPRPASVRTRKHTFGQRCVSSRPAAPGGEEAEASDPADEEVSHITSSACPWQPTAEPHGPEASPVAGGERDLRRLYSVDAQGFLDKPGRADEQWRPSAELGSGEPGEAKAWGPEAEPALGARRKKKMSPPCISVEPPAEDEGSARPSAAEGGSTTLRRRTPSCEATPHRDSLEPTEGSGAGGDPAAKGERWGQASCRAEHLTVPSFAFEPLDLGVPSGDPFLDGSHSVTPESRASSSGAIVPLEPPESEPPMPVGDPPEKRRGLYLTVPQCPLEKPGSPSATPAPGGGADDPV
T6 sequence (Q9HC97 whole entry): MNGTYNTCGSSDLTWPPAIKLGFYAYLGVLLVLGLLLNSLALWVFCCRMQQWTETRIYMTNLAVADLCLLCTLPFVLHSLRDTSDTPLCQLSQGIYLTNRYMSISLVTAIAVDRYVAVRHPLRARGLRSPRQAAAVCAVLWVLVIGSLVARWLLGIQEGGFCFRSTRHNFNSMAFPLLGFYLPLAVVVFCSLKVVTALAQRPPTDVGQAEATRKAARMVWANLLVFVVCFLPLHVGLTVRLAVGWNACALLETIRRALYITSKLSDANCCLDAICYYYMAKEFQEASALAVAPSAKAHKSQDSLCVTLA
T7 sequence (P21554 whole entry): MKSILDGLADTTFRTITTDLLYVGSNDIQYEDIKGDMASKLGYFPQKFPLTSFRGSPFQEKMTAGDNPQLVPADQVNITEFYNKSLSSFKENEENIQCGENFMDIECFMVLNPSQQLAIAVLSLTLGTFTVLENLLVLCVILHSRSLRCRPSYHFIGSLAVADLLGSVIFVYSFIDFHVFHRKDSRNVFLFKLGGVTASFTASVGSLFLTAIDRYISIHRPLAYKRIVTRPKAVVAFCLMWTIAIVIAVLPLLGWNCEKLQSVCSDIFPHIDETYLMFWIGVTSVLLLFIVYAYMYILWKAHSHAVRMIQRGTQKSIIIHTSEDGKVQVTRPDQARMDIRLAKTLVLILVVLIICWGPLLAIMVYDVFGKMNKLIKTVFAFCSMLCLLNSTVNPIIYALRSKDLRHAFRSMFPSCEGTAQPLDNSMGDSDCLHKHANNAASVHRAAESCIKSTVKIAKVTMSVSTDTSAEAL
X-box-binding protein 1, sequence (P17861 whole entry): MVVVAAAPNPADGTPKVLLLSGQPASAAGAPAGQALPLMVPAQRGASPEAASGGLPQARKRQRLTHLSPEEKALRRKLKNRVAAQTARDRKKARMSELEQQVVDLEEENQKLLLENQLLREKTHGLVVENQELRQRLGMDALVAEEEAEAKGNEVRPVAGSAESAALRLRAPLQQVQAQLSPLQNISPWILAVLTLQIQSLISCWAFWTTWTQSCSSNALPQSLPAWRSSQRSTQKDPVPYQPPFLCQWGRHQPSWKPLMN
DNA dC->dU-editing enzyme APOBEC-3A, sequence (P31941 whole entry): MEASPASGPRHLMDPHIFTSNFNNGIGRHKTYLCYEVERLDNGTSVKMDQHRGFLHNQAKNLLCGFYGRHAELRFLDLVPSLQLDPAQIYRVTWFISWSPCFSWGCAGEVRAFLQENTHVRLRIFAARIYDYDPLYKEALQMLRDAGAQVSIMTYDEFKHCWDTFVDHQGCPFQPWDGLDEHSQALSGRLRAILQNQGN
Bcl-2-like protein 1, sequence (Q07817 whole entry): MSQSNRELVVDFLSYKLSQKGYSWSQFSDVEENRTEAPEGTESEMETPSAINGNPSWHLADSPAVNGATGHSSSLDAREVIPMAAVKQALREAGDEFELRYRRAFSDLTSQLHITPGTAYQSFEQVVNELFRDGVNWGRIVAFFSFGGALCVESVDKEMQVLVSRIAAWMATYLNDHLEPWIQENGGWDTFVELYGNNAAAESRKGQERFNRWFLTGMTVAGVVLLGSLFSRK

Cc1ccc(CNC(=O)NCc2ccccc2)cc1
IC50 [1]: > 100 µM (inactive) | IC50 [2]: > 100 µM (inactive)

O=C(O)/C(=C\c1ccc(Cl)c([N+](=O)[O-])c1)c1ccc(S(=O)(=O)N2CCCC2)s1
IC50 (Bcl-2-like protein 1): > 109 µM (not active) | AC50 (Caspase-6): 3.82 µM (active) | IC50 [3]: 19.4 µM (active) | AC50 (Caspase-7): > 70 µM (inactive) | IC50 [4]: 15 µM (not active) | IC50 [5]: 47.8 µM (active)

CC(C)NC(=O)c1ccccc1-c1ccccc1
IC50 (Coagulation factor XII [6]): > 50 µM (inactive)

Cn1ncc2c(ON=C(N)c3ccc(C(C)(C)C)cc3)ncnc21
EC50 [7]: > 120 µM (not active) | IC50 [8]: 2.12 µM (active) | EC50 [9]: 7.91 µM (active) | EC50 [10]: 7.4 µM (active) | IC50 [11]: 1.22 µM (active) | Absolute IC50 (XBP1) (X-box-binding protein 1): < 10 µM | EC50 (BJ [12]): 1.32 µM (active) | AC50 (INS1): 5.03 µM (active) | EC50 [13]: > 100 µM (inactive) | EC50 (BJ [14]): 2.92 µM (active) | EC50 (BJ [15]): 4.91 µM (inconclusive) | EC50 [16]: 2.83 µM (active) | EC50 (BJ [17]): 5.24 µM (inconclusive) | EC50 [18]: 10.1 µM (active)

O=C(Cc1ccc(-n2cccc2)cc1)N1CCc2ccccc21
IC50 (Coagulation factor XII [19]): > 50 µM (inactive)

COc1ccc(/C=C2\SC(=S)N(CCC(=O)N3CCOCC3)C2=O)cc1
EC50 (T-cell): 16.2 µM (active)

Cc1cccc(N2CCN(C(=O)c3cccc(S(=O)(=O)N(C)C)c3)CC2)c1C
EC50 (Cannabinoid receptor 2 [20]): > 32 µM (inactive) | EC50 [21]: > 32 µM (inactive) | IC50 (Cannabinoid receptor 2 [22]): > 32 µM (inactive) | IC50 (Cannabinoid receptor 1 [23]): > 32 µM (inactive) | EC50 (Cannabinoid receptor 1 [24]): > 32 µM (inactive) | IC50 [25]: > 32 µM (inactive) | EC50 [26]: 3.12 µM (active)

CC(C)(C)CCN1C[C@@H]2[C@@H](CNC(=O)c3cc(Cl)cc(Cl)c3)[C@@H]2C1
IC50 [27]: 0.036 µM (active) | EC50 [28]: 0.15 µM (active)

O=C(CN1CCCc2ccccc21)N/N=C/c1c(O)ccc2ccccc12
IC50 [29]: 2.68 µM (active) | EC50 [30]: > 160 µM (inconclusive) | AC50 [31]: 1.83 µM (active) | EC50 (cells [32]): > 350 µM (not active) | EC50 (cells [33]): 60.1 µM (active) | EC50 [34]: 1.91 µM (active)
